Laboratory results: US8106055B2, “Substituted amide compounds” (Gruenenthal GmbH, priority 2007, dated 2012)

Legend:
[1] = target: T1, serotonin (5-HT) reuptake (Rattus norvegicus, UniProt P31652); assay: Inhibition of serotonin (5HT) reuptake in synaptosomes from rat brain; assay type: biochemical; conditions: test concentration of 10 μM
T1 construct: synaptosomes are freshly isolated from areas of the rat brain; from tissue; host or cells: rat brain synaptosomes (P2 fraction)
How it was run: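 Compounds screened at 10 μM and reported as percent inhibition of serotonin uptake. Uptake measured in a freshly prepared P2 synaptosomal fraction from rat brain.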

[2] = target: T2, human bradykinin 1 receptor (B1R) (Homo sapiens, UniProt P46663); assay: Functional investigation on the human bradykinin 1 receptor (B1R), Ca2+ FLIPR assay in CHO K1 hB1R cells; assay type: cell-based; conditions: B1R antagonism human; test substance 10 μM; Ca2+ FLIPR, CHO K1 hB1R cells
T2 construct: expressed in transfected cells; host or cells: CHO K1 cells
T2 sequence (P46663 1-353): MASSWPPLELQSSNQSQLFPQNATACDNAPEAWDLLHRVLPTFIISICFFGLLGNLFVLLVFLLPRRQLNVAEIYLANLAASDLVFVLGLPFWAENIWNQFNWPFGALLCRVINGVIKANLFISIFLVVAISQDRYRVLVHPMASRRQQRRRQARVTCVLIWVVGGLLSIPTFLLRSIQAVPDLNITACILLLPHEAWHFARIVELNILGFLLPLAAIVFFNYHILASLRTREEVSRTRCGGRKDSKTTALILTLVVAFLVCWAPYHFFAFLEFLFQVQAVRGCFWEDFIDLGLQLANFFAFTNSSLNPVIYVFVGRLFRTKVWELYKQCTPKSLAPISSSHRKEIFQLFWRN
How it was run: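 Fluo-4 Ca2+ readout, peak fluorescence. Stable CHO K1 transfectants; compound pre-incubated 10-20 min, then EC80 agonist—Lys-Des-Arg9-BK for hB1R, Des-Arg9-BK for rB1R. % inhibition vs maximal inhibition; IC50 from multiple concentrations, duplicate/triplicate, ≥2 independent runs.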

T1 sequence (P31652 whole entry): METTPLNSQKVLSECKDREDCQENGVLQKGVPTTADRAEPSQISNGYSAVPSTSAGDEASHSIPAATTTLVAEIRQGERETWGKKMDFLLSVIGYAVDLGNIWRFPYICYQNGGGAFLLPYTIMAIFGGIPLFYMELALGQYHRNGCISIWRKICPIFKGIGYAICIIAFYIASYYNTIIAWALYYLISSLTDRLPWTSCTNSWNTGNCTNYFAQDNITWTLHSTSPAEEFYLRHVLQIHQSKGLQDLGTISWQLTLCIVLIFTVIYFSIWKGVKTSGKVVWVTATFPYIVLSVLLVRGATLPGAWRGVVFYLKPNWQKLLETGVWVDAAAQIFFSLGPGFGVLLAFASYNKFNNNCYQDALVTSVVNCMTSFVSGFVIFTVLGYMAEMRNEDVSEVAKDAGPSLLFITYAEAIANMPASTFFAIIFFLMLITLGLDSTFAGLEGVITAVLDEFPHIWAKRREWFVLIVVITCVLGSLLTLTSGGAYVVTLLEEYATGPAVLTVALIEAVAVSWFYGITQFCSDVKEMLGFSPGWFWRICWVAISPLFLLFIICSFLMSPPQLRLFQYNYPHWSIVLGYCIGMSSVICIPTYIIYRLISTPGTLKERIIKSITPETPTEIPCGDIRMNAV

SMILES | 5-HT (inhibition of reuptake of serotonin, % inhibition) [1] | B1R Ant. h [10 μM] % Inhibition [2]
COc1ccc(S(=O)(=O)N2CCCCC2COCC(=O)NCCC2CCC(C(c3ccc(F)cc3)N(C)C)CC2)c(OC)c1 (stereo not shown) [Example 500] | 90% | 3%
Cc1cc(C)c(S(=O)(=O)N2CCC(OCC(=O)NCCC3CCC(C(c4ccc(F)cc4)N(C)C)CC3)C2)c(C)c1 (stereo not shown) [Example 501] | 77% | 77%
CN(C)C(c1ccc(F)cc1)C1CCC(NC(=O)COCCN2CCN(S(=O)(=O)c3ccccc3)CC2)CC1 (stereo not shown) [Example 502] | 97% | −3%
COc1cc(C)c(S(=O)(=O)N2CCC(OCC(=O)NCC3CCC(C(CCc4ccccc4)N(C)C)CC3)C2)c(C)c1C (stereo not shown) [Example 503] | 90% | 105%
COc1cc(C)c(S(=O)(=O)N(CCOCC(=O)NC2CCC(C(c3ccc(F)cc3)N(C)C)CC2)Cc2ccccc2)c(C)c1 (stereo not shown) [Example 504] | 89% | 69%
Cc1cc(C)c(S(=O)(=O)N2CCC(OCC(=O)NCCC3CCC(C(c4ccc(Cl)cc4)N(C)C)CC3)C2)c(C)c1 (stereo not shown) [Example 506] | 86% | 83%
CN(C)C(c1ccccc1)C1CCC(CNC(=O)COCCC2CCN(S(=O)(=O)c3ccccc3)CC2)CC1 (stereo not shown) [Example 507] | 75% | −19%
COc1ccc(S(=O)(=O)N(C)CCOCC(=O)NCC2CCC(C(c3ccc(F)cc3)N(C)C)CC2)cc1 (stereo not shown) [Example 508] | 80% | 46%
COc1cc(C)c(S(=O)(=O)N2CCC(OCC(=O)NCCC3CCC(C(c4ccc(F)cc4)N(C)C)CC3)C2)c(C)c1 (stereo not shown) [Example 509] | 97% | 104%
COc1cc(C)c(S(=O)(=O)N2CCC(CCOCC(=O)NCCC3CCC(C(c4ccc(F)cc4)N(C)C)CC3)CC2)c(C)c1C (stereo not shown) [Example 510] | 99% | 15%
COc1ccc(S(=O)(=O)N2CCCC2COCC(=O)NCC2CCC(C(c3ccc(F)cc3)N(C)C)CC2)cc1 (stereo not shown) [Example 511] | 98% | 38%
COc1ccc(S(=O)(=O)N2CCC(OCC(=O)NC3CCC(C(c4ccc(F)cc4)N(C)C)CC3)C2)cc1OC (stereo not shown) [Example 512] | 86% | −4%
CN(C)C(CCc1ccccc1)C1CCC(CNC(=O)COCCN(C)S(=O)(=O)c2ccc(Cl)cc2Cl)CC1 (stereo not shown) [Example 513] | 89% | 100%
COc1ccc(S(=O)(=O)N(C)CCOCC(=O)NCC2CCC(C(c3ccc(F)cc3)N(C)C)CC2)cc1OC (stereo not shown) [Example 514] | 70% | −6%
CN(C)C(CCc1ccccc1)C1CCC(CNC(=O)COCCN(C)S(=O)(=O)c2c(Cl)cc(Cl)cc2Cl)CC1 (stereo not shown) [Example 515] | 97% | 101%
CN(C)C(c1ccc(F)cc1)C1CCC(CNC(=O)COC2CCN(S(=O)(=O)c3ccc(Cl)cc3)C2)CC1 (stereo not shown) [Example 517] | 86% | −13%
CN(C)C(c1ccc(F)cc1)C1CCC(CCNC(=O)COC2CCN(S(=O)(=O)c3ccc(F)cc3)C2)CC1 (stereo not shown) [Example 518] | 102% | −2%
COc1ccc(S(=O)(=O)N(C)CCOCC(=O)NCCC2CCC(C(c3ccc(F)cc3)N(C)C)CC2)cc1 (stereo not shown) [Example 519] | 88% | 38%
CN(C)C(c1ccc(F)cc1)C1CCC(CCNC(=O)COC2CCCN(S(=O)(=O)c3ccccc3)C2)CC1 (stereo not shown) [Example 520] | 97% | −4%

SMILES | 5-HT (inhibition of reuptake of serotonin, % inhibition) [1] | B1R Ant. h [10 μM] % Inhibition [2]
COc1cc(C)c(S(=O)(=O)N2CCC(CCOCC(=O)NCC3CCC(C(CCc4ccccc4)N(C)C)CC3)CC2)c(C)c1C (stereo not shown) [Example 521] | 89% | 66%
CN(C)C(c1ccc(F)cc1)C1CCC(CNC(=O)COC2CCN(S(=O)(=O)c3ccc(F)cc3)C2)CC1 (stereo not shown) [Example 522] | 98% | 1%
COc1cc(C)c(S(=O)(=O)N(CCOCC(=O)NC2CCC(C(c3ccc(F)cc3)N(C)C)CC2)Cc2ccccc2)c(C)c1C (stereo not shown) [Example 523] | 81% | 50%
COc1ccc(S(=O)(=O)N2CCCCC2COCC(=O)NC2CCC(C(c3ccc(F)cc3)N(C)C)CC2)c(OC)c1 (stereo not shown) [Example 524] | 86% | −11%
COc1cc(C)c(S(=O)(=O)N(C)CCOCC(=O)NCC2CCC(C(CCc3ccccc3)N(C)C)CC2)c(C)c1 (stereo not shown) [Example 525] | 84% | 99%
CN(C)C(CCc1ccccc1)C1CCC(CNC(=O)COCCN2CCN(S(=O)(=O)c3ccccc3)CC2)CC1 (stereo not shown) [Example 526] | 90% | 10%
COc1cc(C)c(S(=O)(=O)N2CCC(OCC(=O)NCC3CCC(C(c4ccc(F)cc4)N(C)C)CC3)CC2)c(C)c1C (stereo not shown) [Example 527] | 96% | 57%
COc1cc(C)c(S(=O)(=O)N2CCN(CCOCC(=O)NCC3CCC(C(CCc4ccccc4)N(C)C)CC3)CC2)c(C)c1C (stereo not shown) [Example 528] | 94% | 98%
CN(C)C(c1ccc(F)cc1)C1CCC(CCNC(=O)COC2CCN(S(=O)(=O)c3ccccc3)C2)CC1 (stereo not shown) [Example 530] | 89% | −18%
CN(C)C(c1ccc(Cl)cc1)C1CCC(CCNC(=O)COCCC2CCN(S(=O)(=O)c3ccccc3)CC2)CC1 (stereo not shown) [Example 531] | 98% | 2%
CN(C)C(c1ccc(F)cc1)C1CCC(CNC(=O)COC2CCN(S(=O)(=O)c3ccccc3)C2)CC1 (stereo not shown) [Example 532] | 99% | 5%
CN(C)C(CCc1ccccc1)C1CCC(CNC(=O)COCCN(Cc2ccccc2)S(=O)(=O)c2ccccc2)CC1 (stereo not shown) [Example 533] | 93% | 35%
COc1ccc(S(=O)(=O)N2CCCCC2CCOCC(=O)NCC2CCC(C(CCc3ccccc3)N(C)C)CC2)cc1 (stereo not shown) [Example 535] | 85% | 77%
CCN(CCOCC(=O)NCC1CCC(C(CCc2ccccc2)N(C)C)CC1)S(=O)(=O)c1c(C)cc(OC)c(C)c1C (stereo not shown) [Example 536] | 84% | 105%
Cc1ccc(S(=O)(=O)N2CCC(OCC(=O)NCC3CCC(C(CCc4ccccc4)N(C)C)CC3)C2)cc1 (stereo not shown) [Example 538] | 91% | 7%
CN(C)C(CCc1ccccc1)C1CCC(CNC(=O)COCCN(C)S(=O)(=O)c2ccc(F)cc2)CC1 (stereo not shown) [Example 539] | 102% | 27%
COc1ccc(S(=O)(=O)N2CCCCC2COCC(=O)NCCC2CCC(C(c3ccc(Cl)cc3)N(C)C)CC2)cc1OC (stereo not shown) [Example 540] | 81% | −19%
COc1cc(C)c(S(=O)(=O)N2CCC(OCC(=O)NCC3CCC(C(c4ccc(F)cc4)N(C)C)CC3)C2)c(C)c1 (stereo not shown) [Example 541] | 95% | 100%
COc1cc(C)c(S(=O)(=O)N(CCOCC(=O)NCC2CCC(C(CCc3ccccc3)N(C)C)CC2)Cc2ccccc2)c(C)c1 (stereo not shown) [Example 542] | 87% | 103%
